Measured values from patent publication US7524844B2, “Dipeptidyl peptidase IV inhibitors, process for their preparation and compositions containing them” (Glenmark Pharmaceuticals S.A., priority 2004, dated 2009).

Target: T1, human recombinant Dipeptidyl peptidase IV enzyme (DPP-IV) (Homo sapiens, UniProt P27487)
T1 construct: purchased R&D Systems Inc. of Minneapolis, Minn
Assay: in-vitro DPP-IV assay (cleavage of AMC from Gly-Pro-AMC)
Format: biochemical
Conditions: human recombinant DPP-IV, Gly-Pro-AMC substrate, 30° C., 30 minutes; read-out: DPP-IV inhibition using human recombinant DPP-IV enzyme, IC50
Procedure: DPP-IV activity was determined by the cleavage rate of 7-amino-4-methyl coumarin (AMC) from the synthetic substrate Glycyl-Prolyl-AMC. In brief, the assay was conducted by adding 10 ng of human recombinant Dipeptidyl peptidase IV enzyme (DPP-IV, available commercially from R&D Systems Inc. of Minneapolis, Minn.) in 50 μl of the assay buffer (25 mM Tris, pH 7.4, 140 mM NaCl, 10 mM KCl, 1% BSA) to 96 well black flat bottom microtiter plates. The reaction was initiated by adding 50 μl of 100 μM substrate Gly-Pro-AMC. The incubation was carried out in the kinetic mode at 30° C. for 30 minutes. Fluorescence was measured using Fluorostar with an excitation filter of 380 nm and emission filter of 460 nm. Test compounds and solvent controls were added as 1 μl additions. A standard curve of free amino methyl coumarin (AMC) was generated using 0-100 μM AMC in the assay buffer. The curve generated, which was linear was used for the interpolation of catalytic activity.
Test compounds dissolved in DMSO at 5-6 concentrations were tested in duplicate along with the solvent control and blank samples. Percent inhibition was calculated at each concentration with respect to the solvent control sample (no test compound added). […]

T1 sequence (P27487 whole entry): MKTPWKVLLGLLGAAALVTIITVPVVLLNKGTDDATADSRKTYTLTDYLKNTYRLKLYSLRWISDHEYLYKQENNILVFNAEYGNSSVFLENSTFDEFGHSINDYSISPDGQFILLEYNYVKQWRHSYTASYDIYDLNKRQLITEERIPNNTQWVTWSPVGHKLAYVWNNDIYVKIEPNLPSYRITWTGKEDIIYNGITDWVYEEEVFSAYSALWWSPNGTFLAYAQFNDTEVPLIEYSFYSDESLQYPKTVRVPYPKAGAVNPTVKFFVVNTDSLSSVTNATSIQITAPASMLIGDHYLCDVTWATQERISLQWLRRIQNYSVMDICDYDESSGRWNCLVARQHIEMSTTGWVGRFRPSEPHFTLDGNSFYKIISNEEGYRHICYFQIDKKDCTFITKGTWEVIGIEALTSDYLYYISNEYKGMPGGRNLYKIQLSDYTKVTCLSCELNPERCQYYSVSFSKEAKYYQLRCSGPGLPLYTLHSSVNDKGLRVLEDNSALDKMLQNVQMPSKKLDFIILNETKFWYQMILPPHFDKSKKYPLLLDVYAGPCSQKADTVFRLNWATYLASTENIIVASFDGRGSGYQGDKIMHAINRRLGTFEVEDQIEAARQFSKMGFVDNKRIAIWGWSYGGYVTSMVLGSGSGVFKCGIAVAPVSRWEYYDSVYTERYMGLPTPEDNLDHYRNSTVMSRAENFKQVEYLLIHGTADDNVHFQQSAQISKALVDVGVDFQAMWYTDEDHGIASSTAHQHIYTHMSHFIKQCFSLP

How did the IC50 turn out when `N#Cc1cn(C[C@H]2CC[C@@H](NCC(=O)N3C[C@@H](F)C[C@H]3C#N)C2)c2ccccc12` [Example-64, 1-((1S,3R)-3-{2-[(2S,4S)-2-Cyano-4-fluoropyrrolidin-1-yl]-2-oxoethylamino}cyclo-pentylmethyl)-1H-3-indolecarbonitrile] was run?
Its IC50 is 5.81 nM.

`N#C[C@@H]1CCCN1C(=O)CN[C@@H]1CC[C@H](CN2Cc3ccccc3C2)C1` [Example-65, (2S)-1-{2-[(3S,1R)-3-(2,3-Dihydro-1H-2-isoindolylmethyl)cyclopentylamino]acetyl}-pyrrolidine-2-carbonitrile] was tested. Which IC50 did it give?
The IC50 was 13.2 nM.

With `N#C[C@@H]1CCCN1C(=O)CN[C@H]1CC[C@@H](Cn2ncc3ccccc32)C1` [Example-67, (2S)-1-{2-[(1S,3R)-3-(1H-Indazol-1-ylmethyl)cyclopentylamino]acetyl}pyrrolidin-2-carbonitrile] as the compound, how does the IC50 read?
Its IC50 is 22.3 nM.

For `N#C[C@@H]1CCCN1C(=O)CN[C@H]1CC[C@@H](Cn2cc3ccccc3n2)C1` [Example-68, (2S)-1-{2-[(1S,3R)-3-(2H-Indazol-2-ylmethyl)cyclopentylamino]acetyl}pyrrolidin-2-carbonitrile], which IC50 is on record?
The IC50 was 19.2 nM.

For `N#C[C@@H]1CCCN1C(=O)CN[C@@H]1CC[C@H](Cn2cnc3ccccc32)C1` [Example-69, (2S)-1-{2-[(3S,1R)-3-(1H-Benzo[d]imidazol-1-ylmethyl)cyclopenylamino]acetyl}-pyrrolidine-2-carbonitrile], which IC50 is on record?
The IC50 was 4.45 nM.

`N#C[C@@H]1CCCN1C(=O)CN[C@@H]1CC[C@H](Cn2nnc3ccccc32)C1` [Example-70, (2S)-1-{2-[(3S,1R)-3-(2H-Benzo[d][1,2,3]triazol-1-ylmethyl)cyclopentylamino]-acetyl}pyrrolidine-2-carbonitrile] was tested. Which IC50 did it give?
The IC50 was 3.43 nM.

For `N#C[C@@H]1CCCN1C(=O)CN[C@@H]1CC[C@H](Cn2nc3ccccc3n2)C1` [Example-71, (2S)-1-{2-[(3S,1R)-3-(2H-benzo[d][1,2,3]triazol-2-ylmethyl)cyclopentylamino]-acetyl}pyrrolidine-2-carbonitrile], which IC50 is on record?
The IC50 was 9.25 nM.
